Converted amounts (≈) assume the structure as drawn.
Legend:
[1] = Metabolic stability in NMRI mouse liver microsome assessed as intrinsic clearance measured per mg of protein incubated for 40 mins; type: ADME; details: liver microsomes, read-out: CLH
[2] = Metabolic stability in Wistar rat liver microsome assessed as intrinsic clearance measured per mg of protein incubated for 40 mins; type: ADME; details: liver microsomes, read-out: CLH
[3] = Kinetic solubility of compound at pH 7.4 incubated for 2 hrs by UV-HPLC analysis; type: physicochemical; details: buffer, read-out: Kinetic_solubility
[4] = biological target: T1, Neuronal acetylcholine receptor subunit alpha-7 (Homo sapiens, UniProt P36544); test: Positive allosteric modulator activity at human alpha7 nAChR expressed in Flp-In HEK293 cells assessed as increase in calcium influx incubated for 10 mins by fluorescence based analysis; type: cell-based
[5] = Metabolic stability in human liver microsome assessed as intrinsic clearance measured per mg of protein incubated for 40 mins; type: ADME; details: liver microsomes, read-out: CLH
[6] = biological target: T1, Neuronal acetylcholine receptor subunit alpha-7; test: Positive allosteric modulator activity at human alpha7 nAChR expressed in Flp-In HEK293 cells assessed as increase in calcium influx at 10 uM incubated for 10 mins by fluorescence based analysis relative to control; type: cell-based
[7] = filed as positive allosteric modulator

T1 sequence (P36544 whole entry): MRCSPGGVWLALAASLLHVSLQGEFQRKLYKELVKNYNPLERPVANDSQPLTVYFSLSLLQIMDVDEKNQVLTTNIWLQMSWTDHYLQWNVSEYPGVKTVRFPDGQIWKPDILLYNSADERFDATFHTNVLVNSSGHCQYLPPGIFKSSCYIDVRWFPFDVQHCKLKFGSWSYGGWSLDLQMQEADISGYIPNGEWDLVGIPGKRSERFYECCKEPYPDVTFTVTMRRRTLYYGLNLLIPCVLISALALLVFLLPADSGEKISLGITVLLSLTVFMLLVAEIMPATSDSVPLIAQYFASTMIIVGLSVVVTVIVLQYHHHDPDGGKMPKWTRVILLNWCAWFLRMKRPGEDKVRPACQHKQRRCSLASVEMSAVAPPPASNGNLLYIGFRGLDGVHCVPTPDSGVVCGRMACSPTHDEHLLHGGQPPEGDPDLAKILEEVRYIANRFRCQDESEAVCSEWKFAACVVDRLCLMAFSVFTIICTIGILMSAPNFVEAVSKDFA

| SMILES | microsomal CLint [1] | microsomal CLint [2] | solubility kinetic at 2 h [3] | EC50 [4] | microsomal CLint [5] | Emax [6] | Emax [6, 7] |
| --- | --- | --- | --- | --- | --- | --- | --- |
| Cn1ccc2cc(CNC(=O)N3CC(COc4ccc(Cl)cc4)C3)cnc21 | 57 µL/min/mg | 53 µL/min/mg | 61.1 µM (≈ 23.5 µg/mL) | 360 nM | 34 µL/min/mg | – | – |
| O=C(NCc1ccc2[nH]ccc2c1)N1CC(COc2ccc(C(F)(F)F)cn2)C1 | 78 µL/min/mg | 63 µL/min/mg | 78.1 µM (≈ 31.6 µg/mL) | 150 nM | 37 µL/min/mg | – | – |
| Cn1cc(F)c2cc(CNC(=O)N3CC(COc4ccc(C(F)(F)F)nc4)C3)ccc21 | – | – | 0.1 µM (≈ 0.0436 µg/mL) | 55 nM | 107 µL/min/mg | – | – |
| Cn1cc(C#N)c2cc(CNC(=O)N3CC(COc4ccc(C(F)(F)F)cc4)C3)cnc21 | – | 38 µL/min/mg | 20.4 µM (≈ 9.05 µg/mL) | – | 49 µL/min/mg | 20% | – |
| CCn1ccc2cc(CNC(=O)N3CC(COc4ccc(C(F)(F)F)cc4)C3)ccc21 | – | – | 0.2 µM (≈ 0.0863 µg/mL) | – | 28 µL/min/mg | – | 83% |
| Cn1cc(C#N)c2cc(CNC(=O)N3CC(COc4ccc(C(F)(F)F)cc4)C3)ccc21 | – | – | 5.3 µM (≈ 2.34 µg/mL) | 2200 nM | 43 µL/min/mg | – | – |
| O=C1CC2(CN(C(=O)NCc3ccc4[nH]ccc4c3)C2)Oc2ccccc21 | – | – | 87.1 µM (≈ 31.5 µg/mL) | – | – | – | 58% |
| Cc1cc2cc(CNC(=O)N3CC(COc4ccc(C(F)(F)F)cc4)C3)ccc2[nH]1 | 94 µL/min/mg | 34 µL/min/mg | 2 µM (≈ 0.835 µg/mL) | 15 nM | 29 µL/min/mg | – | – |
| O=C(NCc1cnc2[nH]c(Cl)cc2c1)N1CC(COc2ccc(C(F)(F)F)cc2)C1 | – | – | 4.5 µM (≈ 1.97 µg/mL) | 260 nM | 29 µL/min/mg | – | – |
| Cc1nnc(-c2cc3cc(CNC(=O)N4CC(COc5ccc(C(F)(F)F)cc5)C4)ccc3[nH]2)o1 | – | 14 µL/min/mg | 5.1 µM (≈ 2.48 µg/mL) | – | 16 µL/min/mg | 1% | – |
| O=C(NCc1cnc2[nH]ccc2c1)N1CC(COc2ccc(C(F)(F)F)cc2)C1 | – | – | 49.9 µM (≈ 20.2 µg/mL) | 3100 nM | – | – | – |
| Cn1ccc2cc(CNC(=O)N3CC(COc4ccc(F)c(C#N)c4)C3)ccc21 | – | – | 9.2 µM (≈ 3.61 µg/mL) | 590 nM | – | – | – |
| Cn1c(C2CC2)cc2cc(CNC(=O)N3CC(COc4ccc(C(F)(F)F)cc4)C3)cnc21 | – | – | 0.3 µM (≈ 0.138 µg/mL) | – | – | 0% | – |
| Cn1c(Cl)cc2cc(CNC(=O)N3CC(COc4ccc(C(F)(F)F)cc4)C3)ccc21 | – | – | 0.2 µM (≈ 0.0904 µg/mL) | – | – | 7% | – |
| COCCc1cc2cc(CNC(=O)N3CC(COc4ccc(C(F)(F)F)cc4)C3)ccc2n1C | – | – | 0.1 µM (≈ 0.0476 µg/mL) | – | – | 0% | – |
| O=C(NCc1ccc2[nH]c(C(F)F)cc2c1)N1CC(COc2ccc(C(F)(F)F)cc2)C1 | – | 23 µL/min/mg | 41 µM (≈ 18.6 µg/mL) | 220 nM | 27 µL/min/mg | – | – |
| Cn1cc(Cl)c2cc(CNC(=O)N3CC(COc4ccc(C(F)(F)F)cc4)C3)ccc21 | 140 µL/min/mg | 96 µL/min/mg | < 0.1 µM | 200 nM | 30 µL/min/mg | – | – |
| CC(C)n1ccc2cc(CNC(=O)N3CC(COc4ccc(C(F)(F)F)cc4)C3)ccc21 | – | – | 0.9 µM (≈ 0.401 µg/mL) | – | – | 1% | – |
| Cn1ccc2cc(CNC(=O)N3CC(COc4ccc(F)cc4C#N)C3)ccc21 | – | – | 31 µM (≈ 12.2 µg/mL) | 2800 nM | – | – | – |
| Cn1ccc2cc(CNC(=O)N3CC(COc4ccc(F)c(F)c4)C3)ccc21 | – | – | 1.2 µM (≈ 0.462 µg/mL) | 150 nM | 46 µL/min/mg | – | – |
| O=C(NCc1ccc2[nH]ccc2c1)N1CC(COc2ccc(C(F)(F)F)cc2F)C1 | 47 µL/min/mg | 39 µL/min/mg | 16.3 µM (≈ 6.87 µg/mL) | 250 nM | 24 µL/min/mg | – | – |
| O=C(NCc1ccc2[nH]ccc2c1)N1CC(COc2ccc(C(F)(F)F)nc2)C1 | – | – | 86.8 µM (≈ 35.1 µg/mL) | 1100 nM | – | – | – |
| Cn1ccc2cc(CNC(=O)N3CC(COc4ccc(C(F)(F)F)nc4)C3)ccc21 | – | – | 1.8 µM (≈ 0.753 µg/mL) | 270 nM | 27 µL/min/mg | – | – |

| SMILES | microsomal CLint [1] | microsomal CLint [2] | solubility kinetic at 2 h [3] | EC50 [4] | microsomal CLint [5] | Emax [6] | Emax [6, 7] |
| --- | --- | --- | --- | --- | --- | --- | --- |
| O=C(NCc1ccc2c(ccn2CC(F)(F)F)c1)N1CC(COc2ccc(C(F)(F)F)cc2)C1 | – | – | 0.6 µM (≈ 0.291 µg/mL) | – | – | 3% | – |
| Cc1cc2cc(CNC(=O)N3CC4(CC(=O)c5cc(F)ccc5O4)C3)ccc2[nH]1 | 51 µL/min/mg | 34 µL/min/mg | 36.4 µM (≈ 14.3 µg/mL) | – | 18 µL/min/mg | – | – |
| O=C(NCc1ccc2[nH]c(C3CC3)cc2c1)N1CC(COc2ccc(C(F)(F)F)cc2)C1 | – | 56 µL/min/mg | 1.9 µM (≈ 0.843 µg/mL) | – | 25 µL/min/mg | 3% | – |
| O=C1CC2(CN(C(=O)NCc3ccc4[nH]c(Cl)cc4c3)C2)Oc2ccccc21 | 178 µL/min/mg | 176 µL/min/mg | 21.1 µM (≈ 8.35 µg/mL) | 230 nM | 22 µL/min/mg | – | – |
| Cc1cc2cc(CNC(=O)N3CC(COc4ccc(C(F)(F)F)cc4)C3)cnc2n1C | – | – | 0.6 µM (≈ 0.259 µg/mL) | 300 nM | 54 µL/min/mg | – | – |
| Cn1ccc2cc(CNC(=O)N3CC(COc4ccc(Cl)c(Cl)c4)C3)ccc21 | – | – | 0.5 µM (≈ 0.209 µg/mL) | 80 nM | 61 µL/min/mg | – | – |
| Cn1c(Cl)cc2cc(CNC(=O)N3CC(COc4ccc(C(F)(F)F)cc4)C3)cnc21 | – | – | 0.2 µM (≈ 0.0906 µg/mL) | – | – | 4% | – |
| Cc1ccc(OCC2CN(C(=O)NCc3ccc4[nH]c5c(c4c3)CCCC5)C2)cc1 | – | – | 4.4 µM (≈ 1.78 µg/mL) | – | – | 1% | – |
| Cn1ccc2cc(CNC(=O)N3CC(COc4ccc(C(F)(F)F)c(F)c4)C3)ccc21 | – | – | 0.2 µM (≈ 0.0871 µg/mL) | 45 nM | – | – | – |
| Cn1cc(Cl)c2cc(CNC(=O)N3CC4(CC(=O)c5ccccc5O4)C3)ccc21 | – | – | 9.7 µM (≈ 3.98 µg/mL) | – | 128 µL/min/mg | – | – |
| NC(=O)c1cc2cc(CNC(=O)N3CC(COc4ccc(C(F)(F)F)cc4)C3)ccc2[nH]1 | – | – | 6.9 µM (≈ 3.08 µg/mL) | – | – | 0% | – |
| Cc1ccc(OCC2CN(C(=O)NCc3ccc4[nH]c(C)c(C)c4c3)C2)cc1 | – | – | 13.4 µM (≈ 5.06 µg/mL) | 490 nM | 323 µL/min/mg | – | – |
| Cc1cc2cc(CNC(=O)N3CC4(CC(=O)c5cc(F)cc(F)c5O4)C3)ccc2[nH]1 | 121 µL/min/mg | 80 µL/min/mg | 30.9 µM (≈ 12.7 µg/mL) | – | 8 µL/min/mg | – | – |
| Cc1cc2cc(CNC(=O)N3CC(COc4ccc(C(F)(F)F)cc4)C3)ccc2n1C | – | – | – | 70 nM | 41 µL/min/mg | – | – |
| Cn1cc(Cl)c2cc(CNC(=O)N3CC(COc4ccc(C(F)(F)F)cc4)C3)cnc21 | – | – | 7.2 µM (≈ 3.26 µg/mL) | 390 nM | 97 µL/min/mg | – | – |
| Cc1cn(C)c2ncc(CNC(=O)N3CC(COc4ccc(C(F)(F)F)cc4)C3)cc12 | – | – | 14.2 µM (≈ 6.14 µg/mL) | 1200 nM | – | – | – |
| O=C(NCc1ccc2[nH]cc(Cl)c2c1)N1CC(COc2ccc(C(F)(F)F)cc2)C1 | 43 µL/min/mg | 23 µL/min/mg | 12 µM (≈ 5.25 µg/mL) | 500 nM | 25 µL/min/mg | – | – |
| Cc1cc2cc(CNC(=O)N3CC4(CC(=O)c5ccccc5O4)C3)ccc2[nH]1 | 100 µL/min/mg | 52 µL/min/mg | 51.5 µM (≈ 19.3 µg/mL) | 140 nM | 11 µL/min/mg | – | – |
| COCc1cc2cc(CNC(=O)N3CC(COc4ccc(C(F)(F)F)cc4)C3)cnc2[nH]1 | – | 48 µL/min/mg | 2.9 µM (≈ 1.3 µg/mL) | – | 43 µL/min/mg | 30% | – |
| Cn1c(C#N)cc2cc(CNC(=O)N3CC(COc4ccc(C(F)(F)F)cc4)C3)ccc21 | – | – | 2.4 µM (≈ 1.06 µg/mL) | – | – | 15% | – |
| Cn1ccc2cc(CNC(=O)N3CC(COc4ccc(C(F)(F)F)cn4)C3)ccc21 | – | – | 0.9 µM (≈ 0.377 µg/mL) | 40 nM | 61 µL/min/mg | – | – |
| Cn1ccc2cc(CNC(=O)N3CC(COc4ccc(F)cc4F)C3)ccc21 | – | – | 45.5 µM (≈ 17.5 µg/mL) | 270 nM | 48 µL/min/mg | – | – |
| Cc1[nH]c2ccc(CNC(=O)N3CC4(CC(=O)c5ccccc5O4)C3)cc2c1Cl | – | – | 10 µM (≈ 4.1 µg/mL) | 460 nM | – | – | – |

From ChEMBL document CHEMBL5375957, “Optimization of Novel α7 Nicotinic Acetylcholine Receptor Positive Allosteric Modulators and the Discovery of a Preclinical Development Candidate Molecule (RGH-560)” (J Med Chem, 2023)
